From US12435061B2 (priority 2020, dated 2025)
Read-outs that look alike come from different tables or passages of the source.

Key:
[1] = tested on: male C57BL/6J mice, AEW induced pruritus; assay: Acetone-ether-water (AEW) induced pruritus model in mice; settings: HC-030031 4 mg/mouse SC 5 min before recording; P=0.0005 vs Vehicle2
[2] = rat, in vivo
Description: The rats per group for either skin or CSF sample collection contains 9 rats.
Animals were allocated randomly into the following treatment groups.
Group 1: Control—2 untreated, naïve animals for the collection of blood, skin, and CSF at the point of euthanasia.
The same 3 rats were allocated to each alternating time point of bleeding.
Samples of plasma, skin and CSF were sent to Swiss BioQuant AG, Reinach, Switzerland for further analysis.
The extravascular model was used for oral dosing. Sparse sampling option was used for plasma concentration.
The following pharmacokinetic parameters were estimated from the plasma, skin and CSF concentration versus time curve:
tmax Time to reach the maximum plasma concentration read directly from the individual plasma concentration-time curve.
Cmax Maximum plasma concentration read directly from the individual plasma concentration-time curve.
Cmax/doseCmax corrected for dose.
AUC0-t Area under the plasma concentration-time curve from time point zero to last measurable concentration. AUC0-t was calculated according to the “linear up log down” trapezoidal rule.
AUC0-8 h Area under the plasma concentration-time curve from time point zero to time point 8 h after dosing. AUC0-8 h was calculated according to the “linear up log down” trapezoidal rule.
AUC0-8 h/dose AUC0-8 h corrected for dose

[3] = tested on: SLIGRL-NH2 (PAR2 agonist peptide) induced itching in mice; assay: Efficacy of oral KM-023 in SLIGRL-NH2 itching mouse model; type: in vivo; settings: for Decrease of number of scratches: 30 min before SLIGRL induction, 30 minutes post induction
Excerpt: The aim of this study is to evaluate the efficacy of anti-itching activity of KM-023 in SLIGRL-NH2 (SEQ ID NO: 1) mouse itching model.
Proteinase-activated receptors (PAR) are a group of G-protein coupled receptors which are activated by cleavage of their terminal sequence by serine proteinases. […] Thus, the administration of the murine PAR2 agonist peptide, SLIGRL-NH2 (SEQ ID NO: 1), is an known and acceptable model to assess anti-pruritic compounds in mice.
32 mice in good health status and corresponding to the specifications details above were included in the in vivo phase.
The animals were weighed before treatment. Induction of itching was performed on animals by intradermal administration of SLIGRL-NH2 (SEQ ID NO: 1) peptide in neck (volume about 20 μL).
Oral route was performed by oral gavage using plastic probe 30 min before induction with SLIGRL-NH2 (SEQ ID NO: 1) peptide.
Animals were placed in plexiglass red walls observation devices (for simultaneous observations of 4 mice). Red walls permitted observations of animals by the operator without the possibility for animals to see the operator. Animals were placed in observation cages before induction for 20 to 30 minutes.
Intradermal injections of SLIGRL (SEQ ID NO: 1) was performed on vigil animals in shaved neck and video recording was initiated immediately after injection for a duration of 30 minutes.
Manual image analysis was performed on recorded movies.
Scratching/itching bouts were counted on 6 time periods of 5 minutes (total of 30 min for each mouse).
The scratches were counted at predefined time intervals of 5 minutes post induction and 30 minutes post induction.

[4] = minipig, in vivo
Description: To assess PK profile of escalating doses of KM-023 administered via PO and IV routes. Animal care was carried out as described above. Animals were observed daily throughout the study period.
PK samples were obtained in the following time points:
On Day 0 and Day 1—time 0, 5 min post injection, 30 min post injection, 1 h post injection, 2 h post injection, 6 h post injection, 24 h post injection (on the following day)
On Day 2, 5 min post injection, 30 min post injection, 1 h post injection, 2 h post injection, 6 h post injection
Plasma samples for PK analysis have been send to Swiss BioQuant AG, Switzerland for further processing.
Methodology used for the detection of KM-023 in minipigs plasma is described in above. In both animals dosed with test item, exposure to KM-023 was detected.

[5] = tested on: SLIGRL-NH2 itching mouse model; assay: SLIGRL-NH2 itching mouse model (Example 17); type: in vivo; settings: pre-treatment with either dose of oral KM-023
[6] = design: species or system mice; settings: mouse, in vivo, po
Description: At the beginning of the study, 3 mice were weight before compound treatment. Group of 3 mice received an increasing dose of KM-023 every 24 hours 1 mg/kg, 10 mg/kg, 30 mg/kg, 100 mg/kg, 500 mg/kg once daily, in a volume of 0.2 ml, administered orally. The mice were weighed daily before treatment.
At the end of the experiment, the mice were sacrificed with CO2.

[7] = tested on: DS-Nh mice (TRPV3 Gly573Ser gain-of-function mutation); assay: Efficacy of KM-001 in DS-Nh mouse model (skin histology, dermatitis scoring); settings: topical ointment on cheek, Day 14, KM-001 1% and 0.3%, Tacrolimus 0.1%
Description: Mice were identified by left ear punch. […] On Day −30, −23, −20, −14, −9, −2, 0, 3, 7, 10, 14, erythema and edema of the mice face have been scored on the right and left sides according to criteria in table 21 (Dermatitis scoring criteria).
The viability, clinical signs and behavior were monitored daily. Body weight was recorded daily. […] Mice were monitored just and 7 hours after administration. Animals in all groups were sacrificed at Day 14 by exsanguination through abdominal vena cava under isoflurane.
For skin samples, the skin at the inflammation site from both cheeks of the face were collected. For histological analyses, the skin was fixed in 4% paraformaldehyde for 24 hours. After fixation, these specimens were processed to paraffin embedding for H&E staining, MT staining and immunohistochemistry and toluidine blue staining.
Skin sections taken from facial treated area of each mouse are fixed in paraffin and stained with Hematoxylin & Eosin.

CC(C)c1ccc(NC(=O)Cn2cnc3c2c(=O)n(C)c(=O)n3C)cc1 [HC-030031]
scratching bouts [1]: significantly decreased
scratching time [1]: significantly decreased

Cc1nc(C(=O)N2CCC(c3ccc(-c4ccccc4C4CC4)cc3CO)C2)ccc1O (centres unmarked) [KM-023]
Dose proportionality of plasma AUC0-8 h [2]: roughly more than dose proportional manner
BBB crossing / CNS entry ([2]; po): does not cross BBB
Distribution in CSF ([2]; po): did not distribute well in CSF
Distribution in skin ([2]; po): distributed well in skin
Systemic absorption ([2]; po): acceptable systemic absorption
tmax in plasma ([2]; po, 20 mg/kg): 15 min
Exposure ratio CSF/plasma of AUC0-8 h ([2]; po, 60 mg/kg): 0.0150-0.0162
Exposure ratio skin/plasma of AUC0-8 h ([2]; po, 60 mg/kg): 0.437-0.816
tmax ([2]; po, 60 mg/kg): 0.250
tmax in CSF ([2]; po, 60 mg/kg): 15 min
tmax in plasma ([2]; po, 60 mg/kg): 30 min
tmax in skin ([2]; po, 60 mg/kg): 15 min to 1-hour
Decrease of number of scratches ([3]; oral KM-023 1 mg/kg group): 56.25%
Decrease of number of scratches ([3]; oral KM-023 10 mg/kg group): 68.8%
Anti-itching effect ([3]; oral pretreatment, SLIGRL induced scratch behaviour): anti-pruritic activity
KM-023 concentrations at 24 h post-dose [4]: above 0.300 ng/mL
abnormal clinical signs [4]: No abnormal clinical signs were observed
bioavailability of the KM-023 formulation [4]: 0.2-0.8%
blood exposure [4]: dose dependent blood exposure
tmax [4]: 49.8 min
Half-time ([4]; iv): 3.3 to 4.2 h
apparent maximum concentration time (tmax) ([4]; iv): 5 min
AUC0-8 h ([4]; iv, 1 mg/kg): 314 ng·h/mL
AUC0-h ([4]; iv, 1 mg/kg): 320 ng·h/mL
AUC0-t/dose (lower part of table, beside AUC0-h) ([4]; iv, 1 mg/kg): 320 (h * ng/mL)/(mg/kg)
AUC0-t/dose (upper part of table, beside AUC0-8 h) ([4]; iv, 1 mg/kg): 314 (h * ng/mL)/(mg/kg)
C0 ([4]; iv, 1 mg/kg): 422 ng/mL
Vz/F ([4]; iv, 1 mg/kg): 19.1 L/kg
AUC0-8 h ([4]; iv, 5 mg/kg): 1300 ng·h/mL
AUC0-h ([4]; iv, 5 mg/kg): 1300 ng·h/mL
AUC0-t/dose (lower part of table, beside AUC0-h) ([4]; iv, 5 mg/kg): 261 (h * ng/mL)/(mg/kg)
AUC0-t/dose (upper part of table, beside AUC0-8 h) ([4]; iv, 5 mg/kg): 260 (h * ng/mL)/(mg/kg)
C0 ([4]; iv, 5 mg/kg): 2340 ng/mL
Vz/F ([4]; iv, 5 mg/kg): 18.2 L/kg
AUC0-8 h ([4]; iv, 10 mg/kg): 2800 ng·h/mL
AUC0-h ([4]; iv, 10 mg/kg): 2910 ng·h/mL
AUC0-t/dose (lower part of table, beside AUC0-h) ([4]; iv, 10 mg/kg): 291 (h * ng/mL)/(mg/kg)
AUC0-t/dose (upper part of table, beside AUC0-8 h) ([4]; iv, 10 mg/kg): 280 (h * ng/mL)/(mg/kg)
C0 ([4]; iv, 10 mg/kg): 6880 ng/mL
time of maximum concentration (tmax) ([4]; po): 5 to 30 min
AUC0-24 h ([4]; po, 1 mg/kg): 0.442 ng·h/mL
AUC0-t/dose ([4]; po, 1 mg/kg): 0.442 kg·ng·h/mL/mg
AUC0-∞ ([4]; po, 1 mg/kg): 0.596 ng·h/mL
AUC0-24 h ([4]; po, 5 mg/kg): 1.31 ng·h/mL
AUC0-t/dose ([4]; po, 5 mg/kg): 0.262 kg·ng·h/mL/mg
AUC0-∞ ([4]; po, 5 mg/kg): 2.01 ng·h/mL
AUC0-24 h ([4]; po, 10 mg/kg): 23.2 ng·h/mL
AUC0-t ([4]; po, 10 mg/kg): 31.2 ng·h/mL
AUC0-t/dose ([4]; po, 10 mg/kg): 2.32 kg·ng·h/mL/mg
AUC0-∞ ([4]; po, 10 mg/kg): 23.2 ng·h/mL
AUC0-∞/dose ([4]; po, 10 mg/kg): 3.12 kg·ng·h/mL/mg
number of scratches observed 30 minutes post induction [5]: decrease the number of scratches
Maximal Feasible Dose (MFD) [6]: 500 mg/kg

C=CC[C@@H]1/C=C(\C)C[C@H](C)C[C@H](OC)[C@H]2O[C@@](O)(C(=O)C(=O)N3CCCC[C@H]3C(=O)O[C@H](/C(C)=C/[C@@H]3CC[C@@H](O)[C@H](OC)C3)[C@H](C)[C@@H](O)CC1=O)[C@H](C)C[C@@H]2OC [Tacrolimus, reference compound]
Skin pathology (H&E histology: epidermis, inflammation) [7]: only slightly improved skin pathology
